{
  "source": "patent US20150024031A1",
  "about": "“Methods And Compositions For Reducing Pain, Inflammation, And/Or Immunological Reactions Associated With Parenterally Administering A Primary Therapeutic Agent” (BAXTER INTERNATIONAL INC., priority 2013, published 2015)",
  "key": {"[1]": {"test_system": "Lewis rats inoculated with peptidoglycan-polysaccharide (PG-PS)", "experiment": "Histopathological examination of stifle joints (synovial inflammation)", "assay_type": "in vivo", "conditions": "scale of 1 (no inflammation) to 3, necropsy Day 30", "description": "(§1) The ability of a dispersion comprising microparticles of an analgesic agent according to the invention to mediate pain and inflammation was investigated in an animal model. Lewis rats were inoculated with peptidoglycan-polysaccharide (PG-PS) (5.4 mg/mL, Lee Laboratories) by intraarticular injection in the right knee two weeks prior to the start of the examination period, i.e., on Day −14. PG-PS induces inflammation highly representative of that produced by certain drugs and is also used in models of arthritis. On Day 0, animals were dosed via single intraarticular injection of 70 μL saline, daily oral celecoxib 10 mg/kg, or single intraarticular injection of 70 μL (8.5 mg) ropivacaine suspension. Two hours post-dosing, the inflammatory response was activated by a tail vein injection of 0.5 mL of 0.4 mg/mL PG-PS. […] The animals in the saline and ropivacaine groups were re-dosed on Day 23, after the initial inflammatory response subsided, and the inflammatory response was reactivated on Day 28 by tail vein injection. The oral celecoxib was dosed 10 mg/kg daily throughout the study except for Day 29, when the dose was increased to 50 mg/kg. The test groups are described in Table 4:\n(§2) Drug quantitation was performed on blood and plasma samples to assess the pharmacokinetic profiles of the drugs and the levels to which the drugs were present systemically. Knee joint tissues were also assayed for drug concentration in order to determine if any residual drug was present in the joints at the conclusion of the study. In addition, histological analysis and cytokine analysis were performed on knee joint tissues collected during necropsy on Day 30. […] Quantitation of celecoxib was performed on plasma and whole blood samples collected from the rats in Groups 2 to 5 at timepoints of 1, 6, 12, and 24 hours, and at 7, 14, 21, and 29 days. […] Celecoxib levels in Group 2 (saline control) were primarily below the quantitation limit, as expected. Celecoxib was also detected in the knee tissues from Groups 3, 4, and 5, with the Group 3 levels being the highest, followed by Group 4, and finally Group 5. […] Ropivacaine was undetected in the rat knee tissues."}, "[2]": {"conditions": "slow release depot dosage form; cited from earlier work"}, "[3]": {"conditions": "relative, bupivacaine and ropivacaine; cited from earlier work"}, "[4]": {"experiment": "Drug quantitation in blood, plasma and knee joint tissues", "assay_type": "in vivo, Lewis rats", "conditions": "for drug in knee tissues: end of study", "description": "as §1, §2"}},
  "data": [
    {"smiles": "Cc1ccc(-c2cc(C(F)(F)F)nn2-c2ccc(S(N)(=O)=O)cc2)cc1", "note": "[Oral Celecoxib]", "values": [
      {"measurement": "synovial inflammation score, Animal 1", "setting": "[1]", "result": 3},
      {"measurement": "synovial inflammation score, Animal 2", "setting": "[1]", "result": 3},
      {"measurement": "synovial inflammation score, Animal 3", "setting": "[1]", "result": 3},
      {"measurement": "synovial inflammation score, Animal 4", "setting": "[1]", "result": 2}
    ]},
    {"smiles": "CCCCN1CCCCC1C(=O)Nc1c(C)cccc1C", "note": "(centres unmarked) [bupivacaine]", "values": [
      {"measurement": "minimum tissue drug level found to alleviate pain", "setting": "[2]", "result": 30, "unit": "µg/mL"},
      {"measurement": "equipotent concentration", "setting": "[3]", "result": 1}
    ]},
    {"smiles": "Cc1ccc(-c2cc(C(F)(F)F)nn2-c2ccc(S(N)(=O)=O)cc2)cc1", "note": "[celecoxib]", "values": [
      {"measurement": "drug in knee tissues", "setting": "[4]; Group 3, 10% suspension intraarticular", "result": "highest"},
      {"measurement": "interval up to which measurable levels were detected in the blood", "setting": "[4]; Group 3, intraarticular 70 μL 10% suspension", "result": "≤ 14", "unit": "days"},
      {"measurement": "blood levels compared to Group 3", "setting": "[4]; Group 4 (5% suspension) vs Group 3 (10% suspension)", "result": "systematically lower"},
      {"measurement": "drug in knee tissues", "setting": "[4]; Group 4, 5% suspension intraarticular", "result": "detected"},
      {"measurement": "interval up to which measurable levels were detected in the blood", "setting": "[4]; Group 4, intraarticular 70 μL 5% suspension", "result": "≤ 14", "unit": "days"},
      {"measurement": "blood level on Day 29", "setting": "[4]; Group 4, intraarticular 70 μL 5% suspension, re-dosed Day 23", "result": "measurable levels"},
      {"measurement": "drug in knee tissues", "setting": "[4]; Group 5, oral 10 mg/kg/day", "result": "detected"},
      {"measurement": "persistence of systemic levels in blood", "setting": "[4]; after intraarticular injection, rat blood", "result": "approximately 2 weeks"}
    ]}
  ]
}
